Assays:
Assay in all cases: relative viability (nuclei count vs DMSO), 5 days (fraction); higher = more cells survive
Bexarotene + Phenformin = compound: C=C(c1ccc(C(=O)O)cc1)c1cc2c(cc1C)C(C)(C)CCC2(C)C [Bexarotene] + N=C(N)NC(=N)NCCc1ccccc1 [Phenformin] (partner 250 µM)
How it was run: (§1)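 A single step with final 0.05% Triton X-100, 1% formaldehyde and 1 ug/ml Hoechst fixed the cells and stained nuclei 5 days after treatment. Lung cancer cell lines in 1536-well plates had been treated by pin tool the day after seeding with one drug alone or a fixed anchor-drug dose plus five library-drug doses (not always all listed) in √10 steps, and nuclei were counted on 4× images. Relative viability is the ratio of nuclei in treated wells to nuclei in vehicle wells, taken as the median of duplicate plates.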

Bexarotene + Olaparib = compound: C=C(c1ccc(C(=O)O)cc1)c1cc2c(cc1C)C(C)(C)CCC2(C)C [Bexarotene] + O=C(c1cc(Cc2n[nH]c(=O)c3ccccc23)ccc1F)N1CCN(C(=O)C2CC2)CC1 [Olaparib] (partner 8 µM)
How it was run: as §1

Bexarotene + Trametinib = compound: C=C(c1ccc(C(=O)O)cc1)c1cc2c(cc1C)C(C)(C)CCC2(C)C [Bexarotene] + CC(=O)Nc1cccc(-n2c(=O)n(C3CC3)c(=O)c3c(Nc4ccc(I)cc4F)n(C)c(=O)c(C)c32)c1 [Trametinib] (partner 0.02 µM)
How it was run: as §1

Bexarotene = compound: C=C(c1ccc(C(=O)O)cc1)c1cc2c(cc1C)C(C)(C)CCC2(C)C [Bexarotene]
How it was run: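 Following overnight incubation at 37 °C, lung cancer cell lines in 1536-well plates were pinned with five library-drug doses (not always all listed) in √10 steps on vehicle-anchored plates. The cells then spent 5 days without medium change before a combined fix, permeabilisation and Hoechst stain, 4× imaging and MetaXpress nuclear counts. Viability is the treated-to-vehicle ratio of nuclei, taken as the median across plates. Only plates with control CV below 25% and at least one doubling passed.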

Cell Line	relative viability (Bexarotene + Phenformin; first compound 0.08 µM)	relative viability (Bexarotene + Phenformin; first compound 0.253 µM)	relative viability (Bexarotene + Phenformin; first compound 0.8 µM)	relative viability (Bexarotene + Phenformin; first compound 2.53 µM)	relative viability (Bexarotene + Phenformin; first compound 8 µM)	relative viability (Bexarotene + Olaparib; first compound 0.08 µM)	relative viability (Bexarotene + Olaparib; first compound 0.253 µM)	relative viability (Bexarotene + Olaparib; first compound 0.8 µM)	relative viability (Bexarotene + Olaparib; first compound 2.53 µM)	relative viability (Bexarotene + Olaparib; first compound 8 µM)	relative viability (Bexarotene + Trametinib; first compound 0.08 µM)	relative viability (Bexarotene + Trametinib; first compound 0.253 µM)	relative viability (Bexarotene + Trametinib; first compound 0.8 µM)	relative viability (Bexarotene + Trametinib; first compound 2.53 µM)	relative viability (Bexarotene + Trametinib; first compound 8 µM)	relative viability (Bexarotene; 0.08 µM)	relative viability (Bexarotene; 0.253 µM)	relative viability (Bexarotene; 0.8 µM)	relative viability (Bexarotene; 2.53 µM)	relative viability (Bexarotene; 8 µM)
LCLC-97TM1	0.473	0.438	0.406	0.454	0.451	0.383	0.421	0.411	0.31	0.269	0.187	0.216	0.157	0.165	0.191	1.03	0.969	1.02	0.829	0.939
HARA	0.523	0.448	0.375	0.398	0.39	0.752	0.838	0.925	0.731	0.715	0.902	0.895	0.642	0.989	0.602	1.04	1.03	0.838	0.925	0.875
HCC-78	1.01	0.732	0.599	0.596	0.73	0.756	0.984	0.769	0.883	0.835	0.833	0.952	0.545	0.708	0.861	1.09	0.889	0.844	0.849	1.08
NCI-H1666	0.611	0.531	0.525	0.581	0.561	0.714	0.754	0.694	0.691	0.63	0.912	0.788	0.839	0.809	0.743	1.03	0.924	0.913	0.98	0.857
NCI-H2347	0.361	0.434	–	0.376	0.353	0.583	0.614	0.552	0.42	0.647	0.31	0.235	0.25	0.279	0.299	1.18	1.04	0.809	0.981	1.07
NCI-H838	0.585	0.595	0.504	0.608	0.634	0.809	0.784	0.74	0.725	0.745	0.551	0.611	0.545	0.657	0.585	1.04	1.03	1.04	1.04	0.996
NCI-H2023	0.437	0.483	0.443	0.422	0.344	0.461	0.542	0.406	0.428	0.288	0.719	0.676	0.551	0.497	0.355	1.05	0.958	1.01	0.921	0.771
201T	0.582	0.516	0.5	0.519	0.458	0.837	0.823	0.777	0.919	0.709	0.751	0.724	0.713	0.704	0.643	1.02	0.989	0.971	0.942	0.93
NCI-H1915	0.378	0.373	0.382	0.383	0.36	0.265	0.262	0.284	0.278	0.242	0.297	0.286	0.266	0.255	0.218	1.13	1.05	0.999	0.951	0.904
NCI-H2009	0.554	0.527	0.526	0.479	0.479	0.772	0.697	0.727	0.664	0.663	0.336	0.331	0.28	0.391	0.413	1.21	1.22	1.11	1.08	1.07
BEN	0.289	0.27	0.268	0.214	0.279	1.05	0.942	1	0.853	1.06	0.994	1.02	0.943	0.804	0.997	1.01	0.822	0.868	0.752	0.87
PC-14	0.611	0.61	0.523	0.435	0.522	0.268	0.349	0.243	0.213	0.214	0.708	0.901	0.961	0.818	0.821	1.05	1.17	0.973	0.92	0.896
SK-MES-1	0.751	0.717	0.67	0.615	0.558	0.798	0.832	0.696	0.628	0.564	0.701	0.747	0.656	0.672	0.65	1.16	1.12	1	0.98	0.909
NCI-H727	0.51	0.481	0.574	0.515	0.503	0.778	0.694	0.804	0.691	0.807	0.377	0.362	0.293	0.382	0.292	0.961	0.978	0.916	1.05	1.04
NCI-H1355	0.467	0.481	0.433	0.404	0.447	0.805	0.76	0.781	0.785	0.778	0.468	0.445	0.373	0.479	0.457	1.11	1.04	0.945	0.979	0.96
NCI-H1975	0.492	0.419	0.436	0.446	0.407	1.03	0.906	0.783	0.851	0.836	0.387	0.38	0.307	0.331	0.333	1.05	1.04	1.09	1.01	1.2
LK-2	1.15	0.506	0.381	–	0.47	0.97	0.632	0.981	0.652	0.841	0.838	0.895	0.779	0.719	0.915	1.32	0.942	1.04	0.977	0.998
NCI-H661	0.314	0.296	0.261	0.283	0.272	0.769	0.756	0.73	0.751	0.707	0.58	0.523	0.544	0.543	0.495	1.04	0.998	0.934	0.922	0.91

Cell Line	relative viability (Bexarotene + Phenformin; first compound 0.08 µM)	relative viability (Bexarotene + Phenformin; first compound 0.253 µM)	relative viability (Bexarotene + Phenformin; first compound 0.8 µM)	relative viability (Bexarotene + Phenformin; first compound 2.53 µM)	relative viability (Bexarotene + Phenformin; first compound 8 µM)	relative viability (Bexarotene + Olaparib; first compound 0.08 µM)	relative viability (Bexarotene + Olaparib; first compound 0.253 µM)	relative viability (Bexarotene + Olaparib; first compound 0.8 µM)	relative viability (Bexarotene + Olaparib; first compound 2.53 µM)	relative viability (Bexarotene + Olaparib; first compound 8 µM)	relative viability (Bexarotene + Trametinib; first compound 0.08 µM)	relative viability (Bexarotene + Trametinib; first compound 0.253 µM)	relative viability (Bexarotene + Trametinib; first compound 0.8 µM)	relative viability (Bexarotene + Trametinib; first compound 2.53 µM)	relative viability (Bexarotene + Trametinib; first compound 8 µM)	relative viability (Bexarotene; 0.08 µM)	relative viability (Bexarotene; 0.253 µM)	relative viability (Bexarotene; 0.8 µM)	relative viability (Bexarotene; 2.53 µM)	relative viability (Bexarotene; 8 µM)
HCC-366	0.624	0.608	0.579	0.533	0.597	0.346	0.494	0.381	0.388	0.369	0.357	0.375	0.361	0.295	0.263	1.06	0.998	1.02	0.999	1.02
HOP-62	0.738	0.701	0.698	0.651	0.571	0.452	0.711	0.56	0.43	0.371	0.412	0.502	0.385	0.412	0.422	1.13	1.11	1.15	1.04	1
NCI-H1944	0.278	0.238	0.228	0.238	0.218	0.625	0.573	0.617	0.602	0.494	0.526	0.517	0.465	0.47	0.425	1.29	1.07	1.07	1.25	1.03
SW 1573	0.374	0.328	0.332	0.273	0.297	0.537	0.461	0.499	0.445	0.41	0.546	0.507	0.538	0.502	0.456	1.04	0.976	0.921	0.84	0.771
LU99A	1.24	0.89	0.862	0.829	0.912	0.276	0.306	0.277	0.311	0.273	0.659	0.531	0.608	0.52	0.417	1.33	1.07	0.977	1.06	1.09
NCI-H647	0.588	0.472	0.519	0.53	0.43	0.725	0.629	0.64	0.447	0.464	0.663	0.46	0.335	0.433	0.44	1.03	1.08	0.896	0.924	0.874
A-427	0.322	0.305	0.348	0.3	0.307	0.716	0.781	0.654	0.743	0.728	0.726	0.643	0.629	0.517	0.599	1.06	0.963	0.954	0.895	0.893
COR-L 105	0.614	0.472	0.519	0.517	0.569	0.698	0.743	0.898	0.784	0.913	0.48	0.426	0.478	0.451	0.465	1.13	1.02	0.963	0.987	0.892
NCI-H441	1.03	0.743	0.811	0.864	0.868	0.608	0.61	0.628	0.599	0.495	0.568	0.481	0.669	0.527	0.633	1.31	1.1	1.04	0.969	1
NCI-H2126	0.529	0.535	0.526	0.56	0.55	0.927	0.912	0.855	0.837	0.816	0.639	0.56	0.553	0.619	0.54	1.02	1.01	0.954	0.991	0.971
EBC-1	–	–	–	–	–	0.771	0.713	0.588	0.701	0.715	–	–	–	–	–	0.901	1.03	0.971	1.02	1.08
ABC-1	0.239	0.225	0.215	0.303	0.285	0.827	0.839	0.478	–	0.631	–	–	–	–	–	1	0.904	0.892	0.851	0.993
NCI-H1563	0.682	0.665	0.669	0.674	0.619	–	–	–	–	–	–	–	–	–	–	1.03	0.911	0.868	0.938	0.987
NCI-H1299	–	–	–	–	–	0.951	0.967	0.917	0.882	0.895	–	–	–	–	–	1.01	1.12	1.06	1.01	1.02
A549	0.133	0.187	0.157	0.18	0.183	0.245	0.388	0.35	0.291	0.3	–	–	–	–	–	1.07	0.99	0.964	0.933	0.878
IA-LM	–	–	–	–	–	0.752	0.707	0.675	0.576	0.63	–	–	–	–	–	0.876	0.906	0.806	0.774	0.831
Calu-6	–	–	–	–	–	0.638	0.563	0.494	0.606	0.568	–	–	–	–	–	1.04	1.03	0.955	1.02	1.06
